Earlier results in patent publication EP1954843B1, “LEACHING PROCESS IN THE PRESENCE OF HY[…] FOR THE RECOVERY OF A VALUE METAL FROM AN ORE” (Anglo Operations Limited, priority 2005, dated 2007).

Settings: at 80°C

[Cl-].[Cl-].[Zn+2] [zinc chloride]
soluble to the extent of: ca. 84.4 g/100g saturated solution
